From US20220017512A1 (SHANGHAI ENNOVABIO PHARMACEUTICALS CO., LTD., priority 2018, published 2022)

How the values were obtained:
Type in all cases: biochemical
Recombinant human TRKB = biological target: T1, Recombinant human TRKB (Homo sapiens, UniProt Q16620); assay: In vitro activity test on TRKB kinase (HTRF KinEASE TK); settings: 4.77 μM ATP, 50 min
T1 construct: purchased Carna Biosciences
Experimental: (§1) Biological Test Example 1 In Vitro Activity Test on TRKA, TRKB, TRKC Kinase
(§2) Recombinant human TRKA, TRKB, TRKC proteins were purchased from Carna Biosciences. HTRF KinEASE TK kit was purchased from Cisbio Bioassays. Synergy Neo 2 of Biotek was used to read the plate.
(§3) The tested compound was subjected to 3-fold serial dilution to reach a final concentration of 1 μM to 0.05 nM (10 concentrations), duplicates for each concentration; and the DMSO concentration in the detection reaction was 1%.
0.037 ng/μL TRKB protein kinase, 1 μM TK Substrate-biotin polypeptide substrate, 4.77 μM ATP, 1× enzymatic buffer, 5 mM MgCl2, and 1 mM DTT. The detection plate was White Proxiplate 384-Plus plate (PerkinElmer), and incubated at room temperature for 50 min, and the assay volume was 10 μL.
(§4) 10 μL of detection reagent was added to the plate (containing 0.125 μM SA-XL665 and 5 μL 1×TK-Antibody) and incubated overnight at room temperature, and Synergy Neo 2 was used to read the plate.
(§5) The 665/620 Ratio was converted according to the following formula into inhibition rate (%)=(1−Ratiotest/Ratiomax)×100%. Ratiomax was a positive control without tested compound, and Ratiotest was the value of each concentration of different compounds. IC50 (nM) data was obtained by 4 parameter curve fitting (see Table 1).

[1] = biological target: T2, recombinant human TRKA (G667C) (Homo sapiens, UniProt P04629, G667C); assay: In vitro activity test on mutant TRKA (G667C) (HTRF KinEASE TK); settings: 5.5 μM ATP, 30 min
T2 construct: purchased SignalChem
T2 sequence (P04629 33-796 G667C): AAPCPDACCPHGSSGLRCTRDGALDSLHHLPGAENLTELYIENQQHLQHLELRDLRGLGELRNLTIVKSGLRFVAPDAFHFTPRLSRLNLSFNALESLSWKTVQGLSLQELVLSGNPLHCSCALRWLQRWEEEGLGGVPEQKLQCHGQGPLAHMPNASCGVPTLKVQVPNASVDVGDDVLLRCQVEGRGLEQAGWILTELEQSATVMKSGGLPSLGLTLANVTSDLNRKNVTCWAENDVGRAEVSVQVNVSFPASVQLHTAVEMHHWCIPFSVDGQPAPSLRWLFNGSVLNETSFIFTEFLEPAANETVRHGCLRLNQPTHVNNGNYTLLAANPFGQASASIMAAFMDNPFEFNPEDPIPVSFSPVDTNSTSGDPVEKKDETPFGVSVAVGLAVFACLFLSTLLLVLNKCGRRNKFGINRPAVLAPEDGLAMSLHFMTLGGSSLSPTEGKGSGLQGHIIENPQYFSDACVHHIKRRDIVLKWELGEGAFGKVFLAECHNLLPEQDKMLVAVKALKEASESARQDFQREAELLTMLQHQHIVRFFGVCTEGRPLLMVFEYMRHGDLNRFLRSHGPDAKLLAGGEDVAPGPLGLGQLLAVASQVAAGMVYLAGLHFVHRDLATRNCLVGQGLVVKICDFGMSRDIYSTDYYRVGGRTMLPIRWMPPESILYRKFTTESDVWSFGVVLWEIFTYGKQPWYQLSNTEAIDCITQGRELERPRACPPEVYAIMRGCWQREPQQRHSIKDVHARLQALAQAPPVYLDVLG
Experimental: (§6) Biological Test Example 2 In Vitro Activity Test on Mutant TRKA (G595R), TRKA (G667C) and TRKC (G623R)
(§7) The recombinant human TRKA (G595R), TRKA (G667C) and TRKC (G623R) proteins were purchased from SignalChem. HTRF kinEASE TK kit was purchased from CisbioBioassays. Synergy Neo 2 of Biotek was used to read the plate.
(§8) The tested compound was subjected to 4-fold serial dilution to reach a final concentration of 1 μM to 0.004 nM (10 concentrates), duplicates for each concentration; and 1% DMSO was present in the detection reaction.
0.026 ng/μL TRKA (G667C) kinase, 1 μM TK Substrate-biotin polypeptide substrate, 5.5 μm ATP, 1× enzymatic buffer, 5 mM MgCl2, and 1 mM DTT. The detection plate was White Proxiplate 384-Plus plate (PerkinElmer), and incubated at room temperature for 30 min, the assay volume was 10 μL.
as §4
(§9) The value of 665/620 Ratio minus the value of negative control wells without enzyme, then the obtained value was converted according to the following formula into inhibition rate (%)=(1−Ratiotest/Ratiomax)×100%. Ratiomax was a positive control without tested compound, and Ratiotest was the value of each concentration of different compounds. IC50 (nM) data was obtained by 4 parameter curve fitting (see Table 1).

Recombinant human TRKA = biological target: T3, Recombinant human TRKA (Homo sapiens, UniProt P04629); assay: In vitro activity test on TRKA kinase (HTRF KinEASE TK); settings: 14.68 μM ATP, 40 min
T3 construct: purchased Carna Biosciences
T3 sequence (P04629 33-796): as the sequence (P04629 33-796 G667C) above, with C635G counted along it
Experimental: as §1, §2, §3
0.2 ng/μL TRKA protein kinase, 1 μM TK Substrate-biotin polypeptide substrate, 14.68 μM ATP, 1× enzymatic buffer, 5 mM MgCl2, and 1 mM DTT. The detection plate was White Proxiplate384-Plus plate (PerkinElmer), and incubated at room temperature for 40 min, and the assay volume was 10 μL.
as §4, §5

Recombinant human TRKC = biological target: T4, Recombinant human TRKC (Homo sapiens, UniProt Q16288); assay: In vitro activity test on TRKC kinase (HTRF KinEASE TK); settings: 25.64 μM ATP, 40 min
T4 construct: purchased Carna Biosciences
T4 sequence (Q16288 32-839): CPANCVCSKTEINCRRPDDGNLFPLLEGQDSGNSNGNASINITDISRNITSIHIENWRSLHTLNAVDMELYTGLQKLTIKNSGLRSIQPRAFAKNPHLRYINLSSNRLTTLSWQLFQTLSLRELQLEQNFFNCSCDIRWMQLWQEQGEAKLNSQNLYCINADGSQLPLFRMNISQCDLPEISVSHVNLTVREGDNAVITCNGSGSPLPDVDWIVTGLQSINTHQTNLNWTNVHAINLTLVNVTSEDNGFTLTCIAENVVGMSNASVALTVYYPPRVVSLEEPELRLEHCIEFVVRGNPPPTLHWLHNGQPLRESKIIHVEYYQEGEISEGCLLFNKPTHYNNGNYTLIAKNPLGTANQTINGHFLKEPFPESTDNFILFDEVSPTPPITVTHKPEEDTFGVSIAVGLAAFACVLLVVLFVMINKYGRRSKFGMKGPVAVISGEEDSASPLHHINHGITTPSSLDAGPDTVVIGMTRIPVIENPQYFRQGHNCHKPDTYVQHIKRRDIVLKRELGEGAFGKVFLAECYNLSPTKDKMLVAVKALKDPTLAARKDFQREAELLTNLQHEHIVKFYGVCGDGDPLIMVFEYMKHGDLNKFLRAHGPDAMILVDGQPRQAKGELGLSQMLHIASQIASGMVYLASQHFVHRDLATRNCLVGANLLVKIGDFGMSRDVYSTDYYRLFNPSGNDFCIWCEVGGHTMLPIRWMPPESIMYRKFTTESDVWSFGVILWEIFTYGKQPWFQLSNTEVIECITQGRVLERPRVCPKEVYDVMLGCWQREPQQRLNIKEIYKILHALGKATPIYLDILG
Experimental: as §1, §2, §3
0.037 ng/μL TRKC protein kinase, 1 μM TK Substrate-biotin polypeptide substrate, 25.64 μM ATP, 1× enzymatic buffer, 5 mM MgCl2, and 1 mM DTT. The detection plate was White Proxiplate 384-Plus plate (PerkinElmer), and incubated at room temperature for 40 min, and the assay volume was 10 μL.
as §4, §5

[2] = biological target: T5, recombinant human TRKA (G595R) (Homo sapiens, UniProt P04629, G595R); assay: In vitro activity test on mutant TRKA (G595R) (HTRF KinEASE TK); settings: 4.5 μM ATP, 30 min
T5 construct: purchased SignalChem
T5 sequence (P04629 33-796 G595R): as the sequence (P04629 33-796 G667C) above, with G563R, C635G counted along it
Experimental: as §6, §7, §8
0.12 ng/μL TRKA (G595R) kinase, 1 μM TK Substrate-biotin polypeptide substrate, 4.5 μM ATP, 1× enzymatic buffer, 5 mM MgCl2, and 1 mm DTT. The detection plate was White Proxiplate384-Plus plate (PerkinElmer), and incubated at room temperature for 30 min, and the assay volume was 10 μL.
as §4, §9

T1 sequence (Q16620 32-822): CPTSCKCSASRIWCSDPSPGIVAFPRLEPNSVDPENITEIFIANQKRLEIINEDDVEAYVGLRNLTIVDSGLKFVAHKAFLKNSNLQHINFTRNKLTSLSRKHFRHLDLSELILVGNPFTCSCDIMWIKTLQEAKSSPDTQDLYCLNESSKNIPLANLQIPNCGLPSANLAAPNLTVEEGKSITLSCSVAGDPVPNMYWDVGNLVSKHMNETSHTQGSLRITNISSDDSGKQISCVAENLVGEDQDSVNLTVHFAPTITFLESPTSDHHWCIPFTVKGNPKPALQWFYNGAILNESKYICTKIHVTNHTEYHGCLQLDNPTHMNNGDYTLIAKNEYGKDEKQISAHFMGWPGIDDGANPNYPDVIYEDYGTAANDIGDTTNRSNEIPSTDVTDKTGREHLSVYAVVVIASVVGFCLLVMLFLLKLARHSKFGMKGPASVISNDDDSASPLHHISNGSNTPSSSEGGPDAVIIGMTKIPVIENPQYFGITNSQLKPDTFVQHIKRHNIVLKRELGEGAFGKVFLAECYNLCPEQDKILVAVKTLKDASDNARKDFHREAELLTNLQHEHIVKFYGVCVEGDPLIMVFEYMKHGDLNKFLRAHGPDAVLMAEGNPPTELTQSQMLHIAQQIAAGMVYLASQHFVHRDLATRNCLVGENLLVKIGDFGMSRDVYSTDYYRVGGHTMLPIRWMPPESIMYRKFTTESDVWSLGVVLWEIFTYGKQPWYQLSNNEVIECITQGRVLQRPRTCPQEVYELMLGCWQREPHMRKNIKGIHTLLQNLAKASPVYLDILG

| Structure (SMILES) | IC50 (Recombinant human TRKB) [nM] | IC50 [1] [nM] | IC50 (Recombinant human TRKA) [nM] | IC50 (Recombinant human TRKC) [nM] | IC50 [2] [nM] |
| --- | --- | --- | --- | --- | --- |
| Fc1ccc(F)c([C@H]2C[C@H](F)CN2c2ccc3ncc(Cl)c(-c4cnn(C5CNC5)c4)c3n2)c1 [Example 22, 8-(1-(azetidine-3-yl)-1H-pyrazol-4-yl)-7-chloro-2-((2R,4S)-2-(2,5-difluorophenyl)-4-fluoropyrrolidin-1-yl)-1,5-naphthyridine] | < 1 | < 1 | < 1 | < 1 | < 1 |
| CN1CC(n2cc(-c3c(Cl)cnc4ccc(N5C[C@@H](F)C[C@@H]5c5cc(F)ccc5F)nc34)cn2)C1 [Example 23] | < 1 | < 1 | < 1 | < 10 | < 1 |
| Fc1ccc(F)c([C@H]2CCCN2c2ccc3ncc(Cl)c(-c4cnn(C5CCNCC5)c4)c3n2)c1 [Example 24, (R)-7-chloro-2-(2-(2,5-difluorophenyl)pyrrolidin-1-yl)-8-(1-(piperidin-4-yl)-1H-pyrazol-4-yl)-1,5-naphthyridine] | < 1 | < 10 | < 1 | < 10 | < 1 |
| CS(=O)(=O)n1cc(-c2c(Cl)cnc3ccc(N4C[C@@H](F)C[C@@H]4c4cc(F)ccc4F)nc23)cn1 [Example 25, 7-chloro-2-((2R,4S)-2-(2,5-difluorophenyl)-4-fluoropyrrolidin-1-yl)-8-(1-(methylsulfonyl)-1H-pyrazol-4-yl)-1,5-naphthyridine] | < 1 | < 10 | < 10 | < 1 | < 1 |
| O=C(Nc1ccnc2ccc(N3C[C@@H](F)C[C@@H]3c3cc(F)ccc3F)nc12)N1CC[C@H](O)C1 [Example 26, (S)—N-(6-((2R,4S)-2-(2,5-difluorophenyl)-4-fluoropyrrolidin-1-yl)-1,5-naphthyridin-4-yl)-3-hydroxypyrrolidin-1-carboxamide] | < 1 | < 1 | < 1 | < 1 | < 1 |
| O=C(Nc1ccnc2ccc(N3CCC[C@@H]3c3cc(F)ccc3F)nc12)N1CC[C@H](O)C1 [Example 27, (S)—N-(6-((R)-2-(2,5-difluorophenyl)pyrrolidin-1-yl)-1,5-naphthyridin-4-yl)-3-hydroxypyrrolidin-1-carboxamide] | < 1 | < 50 | < 1 | < 1 | < 1 |
| Fc1ccc(F)c([C@H]2CCCN2c2ccc3ncc(F)c(-c4cnn(C5CNC5)c4)c3n2)c1 [Example 28, (R)-8-(1-(azetidin-3-yl)-1H-pyrazol-4-yl)-2-(2-(2,5-difluorophenyl)pyrrolidin-1-yl)-7-fluoro-1,5-naphthyridine] | < 10 | < 10 | < 10 | < 10 | < 10 |
| Fc1ccc(F)c([C@H]2C[C@H](F)CN2c2ccc3ncc(F)c(-c4cnn(C5CNC5)c4)c3n2)c1 [Example 29, 8-(1-(azetidin-3-yl)-1H-pyrazol-4-yl)-2-((2R,4S)-2-(2,5-difluorophenyl)-4-fluoropyrrolidin-1-yl)-7-fluoro-1,5-naphthyridine] | < 1 | < 1 | < 1 | < 1 | < 1 |
| COc1ncc(F)cc1[C@H]1CCCN1c1ccc2ncc(Cl)c(-c3cnn(C4CCNCC4)c3)c2n1 [Example 30, (R)-7-chloro-2-(2-(5-fluoro-2-methoxypyridin-3-yl)pyrrolidin-1-yl)-8-(1-(piperidin-4-yl)-1H-pyrazol-4-yl)-1,5-naphthyridine] | < 10 | < 10 | < 1 | < 10 | < 1 |
| CN(C)S(=O)(=O)n1cc(-c2c(Cl)cnc3ccc(N4C[C@@H](F)C[C@@H]4c4cc(F)ccc4F)nc23)cn1 [Example 31] | < 10 | < 100 | < 1 | < 10 | < 10 |
| OCCN1CCC(n2cc(-c3c(Cl)cnc4ccc(N5C[C@@H](F)C[C@@H]5c5cc(F)ccc5F)nc34)cn2)CC1 [Example 32, 2-(4-(4-(3-chloro-6-((2R,4S)-2-(2,5-difluorophenyl)-4-fluoropyrrolidin-1-yl)-1,5-naphthyridin-4-yl)-1H-pyrazol-1-yl)piperidin-1-yl)ethan-1-ol] | < 1 | < 1 | < 1 | < 1 | < 1 |
| COc1ccc(F)cc1[C@H]1CCCN1c1ccc2ncc(Cl)c(-c3cnn(C4CCNCC4)c3)c2n1 [Example 33, (R)-7-chloro-2-(2-(5-fluoro-2-methoxyphenyl)pyrrolidin-1-yl)-8-(1-(piperidin-4-yl)-1H-pyrazol-4-yl)-1,5-naphthyridine] | < 10 | < 10 | < 1 | < 50 | < 10 |
| CC(C)(O)Cn1cc(-c2c(Cl)cnc3ccc(N4C[C@@H](F)C[C@@H]4c4cc(F)ccc4F)nc23)cn1 [Example 35, 1-(4-(3-chloro-6-((2R,4S)-2-(2,5-difluorophenyl)-4-fluoropyrrolidin-1-yl)-1,5-naphthyridin-4-yl)-1H-pyrazol-1-yl)-2-methylpropan-2-ol] | < 1 | < 10 | < 1 | < 1 | < 10 |
| N#Cc1cnc2ccc(N3C[C@@H](F)C[C@@H]3c3cc(F)ccc3F)nc2c1-c1cnn(C2CCNCC2)c1 [Example 36, 6-((2R,4S)-2-(2,5-difluorophenyl)-4-fluoropyrrolidin-1-yl)-4-(1-(piperidin-4-yl)-1H-pyrazol-4-yl)-1,5-naphthyridin-3-carbonitrile] | < 1 | < 10 | < 1 | < 1 | < 10 |
| NC(=O)c1cnc2ccc(N3C[C@@H](F)C[C@@H]3c3cc(F)ccc3F)nc2c1-c1cnn(C2CCNCC2)c1 [Example 37, 6-((2R,4S)-2-(2,5-difluorophenyl)-4-fluoropyrrolidin-1-yl)-4-(1-(piperidin-4-yl)-1H-pyrazol-4-yl)-1,5-naphthyridin-3-carboxamide] | < 10 | < 50 | < 1 | < 10 | < 10 |
| COC1(C)CC(n2cc(-c3c(Cl)cnc4ccc(N5C[C@@H](F)C[C@@H]5c5cc(F)ccc5F)nc34)cn2)C1 (stereo partly drawn) [Example 38, 7-chloro-2-((2R,4S)-2-(2,5-difluorophenyl)-4-fluoropyrrolidin-1-yl)-8-(1-(3-methoxy-3-methylcyclobutyl)-1H-pyrazol-4-yl)-1,5-naphthyridine] | < 10 | < 50 | < 1 | < 10 | < 50 |
| CC1(O)CC(n2cc(-c3c(Cl)cnc4ccc(N5C[C@@H](F)C[C@@H]5c5cc(F)ccc5F)nc34)cn2)C1 (stereo partly drawn) [Example 39, 3-(4-(3-chloro-6-((2R,4S)-2-(2,5-difluorophenyl)-4-fluoropyrrolidin-1-yl)-1,5-naphthyridin-4-yl)-1H-pyrazol-1-yl)-1-methylcyclobutan-1-ol] | < 1 | < 10 | < 1 | < 1 | < 10 |
